Values joined by “and” are separate entries in the source; they are usually repeats but may differ in a detail not shown here. Identical values can stand only once. Like-named read-outs stand apart in the source and are kept apart here.
How the values were obtained:
[1] = system: GO2Q alone; assay: GTPγS binding assay, control membranes from COS7 cells expressing GO2Q alone (Ct-GO2Q); type: biochemical
Excerpt: (§1) Human (A and B) or mouse (C and D) GPR139 were co-transfected with chimeric G-protein GO2Q into COS7 cells. Cell membranes from transfected cells were used in GTPγS binding studies using various ligands at different concentrations to stimulate GPR139. Membranes from COS7 cells transfected by GO2Q were used as the controls (E and F).
(§2) In order identify the ligands for GPR139 two improvements in the detection assay were made to allow for the ligands to be detected. First, we chose to use a GTPγS binding assay instead of using live cultured cells. The GTPγS binding assay is a cell free system that uses the cell membrane of the cell(s) of interest rather than the live cell(s). One advantage of this assay is that potential ligands present in the cell culture media are washed away when the cell membrane is prepared. This reduces the basal level of signal and increase the chance of detecting receptor ligands when assessing compounds that activate the receptor. Second, a GO2Q chimeric G-protein was created to be co-expressed with GPR139 in order to increase the signal-to-noise ratio in the GTPγS binding assay. Historically, the Gi, Go coupled GPCRs offer much greater signal-to-noise ratio in GTPγS binding studies. For Gs and Gq coupled GPCRs, although ligand-stimulated specific signals can be detected in a GTPγS binding assay, the signal-to-noise ratios are often very small. To address this a chimeric GO2-Gq chimeric G-protein, GO2Q, with the N-terminus from Go2 protein and the C-terminus from Gq protein.
(§3) To test for compounds that activate GPR139, different amino acids and their derivatives (Table 2) were tested as ligands in the GTPγS binding assay using cell membranes from COS7 cells co-expressing GPR139 and GO2Q. Cell membrane from COS7 cells expressing GO2Q alone or co-expressing other GPCRs were also tested in GTPγS binding assay in parallel as controls. Each compound was tested in triplicate.

[2] = target: T1, mouse GPR139 (Mus musculus, UniProt Q80UC8); assay: GTPγS binding dose response, COS7 membranes co-transfected with mouse GPR139 and GO2Q; type: biochemical; settings: mouse GPR139, FIG. 2 C and D
T1 construct: expressed in transfected cells; host or cells: COS7
T1 sequence (Q80UC8 1-345): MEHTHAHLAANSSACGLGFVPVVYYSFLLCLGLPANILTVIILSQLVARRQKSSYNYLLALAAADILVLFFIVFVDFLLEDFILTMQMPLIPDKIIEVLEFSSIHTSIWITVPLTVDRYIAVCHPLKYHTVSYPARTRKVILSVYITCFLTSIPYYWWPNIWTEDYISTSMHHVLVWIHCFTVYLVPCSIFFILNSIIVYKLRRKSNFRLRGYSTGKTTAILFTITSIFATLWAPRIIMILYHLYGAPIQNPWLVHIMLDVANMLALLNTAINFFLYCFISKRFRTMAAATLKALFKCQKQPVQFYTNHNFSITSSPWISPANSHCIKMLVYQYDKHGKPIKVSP
Excerpt: as §1, with “FIG. 2: Tryptophan, phenylalanine, and their derivatives activate GPR139. Human” for “Human”

[3] = target: T2, GPR139 (Homo sapiens, UniProt Q6DWJ6); assay: GTPγS binding assay, membranes from COS7 cells co-expressing GPR139 and GO2Q, single concentration screen; type: biochemical; set-up: expressed in transfected cells; host or cells: COS7; settings: for activation of GPR139 in GTPγS binding assay (in words): 1 mM; for Activation levels of GPR139 (GTPγS binding signal), GPR139-GO2Q: 1 mM final concentration, single wells of triplicate, COS7 membranes co-expressing GPR139 and GO2Q
T2 sequence (Q6DWJ6 1-353): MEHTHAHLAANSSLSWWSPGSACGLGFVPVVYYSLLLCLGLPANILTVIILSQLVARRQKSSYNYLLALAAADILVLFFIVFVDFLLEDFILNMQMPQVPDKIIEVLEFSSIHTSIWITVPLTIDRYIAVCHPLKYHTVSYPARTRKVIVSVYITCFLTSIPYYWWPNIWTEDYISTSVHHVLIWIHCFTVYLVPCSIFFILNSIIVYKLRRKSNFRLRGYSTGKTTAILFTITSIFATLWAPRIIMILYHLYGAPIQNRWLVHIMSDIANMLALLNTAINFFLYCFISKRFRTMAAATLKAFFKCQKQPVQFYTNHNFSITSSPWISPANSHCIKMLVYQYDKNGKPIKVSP
Method: as §2, §3

[4] = target: T2, GPR139; assay: GTPγS binding dose response, COS7 membranes co-transfected with human GPR139 and GO2Q; type: biochemical; set-up: expressed in transfected cells; host or cells: COS7; settings: human GPR139, FIG. 2 A and B
Excerpt: as §1, with “FIG. 2: Tryptophan, phenylalanine, and their derivatives activate GPR139. Human” for “Human”

[5] = target: T2, GPR139; assay: calcium mobilization assay (FLIPR), GPR139 transiently expressed in HEK293 cells; type: cell-based; set-up: expressed in transfected cells; host or cells: HEK293; settings: similar to GTPγS binding studies
Excerpt: For these experiments human GPR139 was transiently expressed in HEK293 cells and calcium mobilization was stimulated using L-Trp, L-Phe or their derivatives.

[6] = 1 mM final concentration, single wells of triplicate, COS7 membranes with GO2Q alone (control panel)

Structure (SMILES) | Activation levels (GTPγS binding signal), Ct-GO2Q [1, 6] | Activation levels of GPR139 (GTPγS binding signal), GPR139-GO2Q [3] | further results
NCCc1ccccc1 [β-phenylethylamine] |  |  | Activation levels (GTPγS binding signal), Ct-GO2Q ([1]; 1 mM final concentration, single wells of triplicate, COS7 membranes with GO2Q alone (control panel), listed as b-phenylethylamine): 2334 and 2065 and 2024; dose response activation of GPR139 (in words) [2]: specifically activate GPR139 in a dose-responsive manner; activation of GPR139 in GTPγS binding assay (in words) [3]: activated GPR139; Activation levels of GPR139 (GTPγS binding signal), GPR139-GO2Q ([3]; listed as b-phenylethylamine): 6705 and 7099 and 6634; dose response activation of GPR139 (in words) [4]: specifically activate GPR139 in a dose-responsive manner
CC(N)Cc1ccccc1 (stereo not shown) [Amphetamine, amphetamine] | 2331 and 2132 and 2001 | 7242 and 6744 and 7263 | dose response activation of GPR139 (in words) [2]: specifically activate GPR139 in a dose-responsive manner; activation of GPR139 in GTPγS binding assay (in words) [3]: activated GPR139; dose response activation of GPR139 (in words) [4]: specifically activate GPR139 in a dose-responsive manner
NCCc1c[nH]c2ccccc12 [Tryptamine, tryptamine] | 2025 and 2048 and 2088 | 6757 and 7686 and 7742 | dose response activation of GPR139 (in words) [2]: specifically activate GPR139 in a dose-responsive manner; activation of GPR139 in GTPγS binding assay (in words) [3]: activated GPR139; dose response activation of GPR139 (in words) [4]: specifically activate GPR139 in a dose-responsive manner
Cn1cc(C[C@@H](N)C(=O)O)c2ccccc21 [1-methyl-D-Trp] |  |  | dose response activation of GPR139 (in words) [2]: specifically activate GPR139 in a dose-responsive manner; dose response activation of GPR139 (in words) [4]: specifically activate GPR139 in a dose-responsive manner; potency in calcium mobilization compared with L-Trp and L-Phe (in words) [5]: higher potencies
N[C@H](Cc1ccccc1)C(=O)O [D-Phe, D-phenylalanine] |  |  | dose response activation of GPR139 (in words) [2]: specifically activate GPR139 in a dose-responsive manner; dose response activation of GPR139 (in words) [4]: specifically activate GPR139 in a dose-responsive manner
N[C@@H](Cc1ccc(O)cc1)C(=O)O [Tyr] | 2192 and 2191 and 2186 | 2752 and 2715 and 2921 | 
N[C@H](Cc1c[nH]c2ccccc12)C(=O)O [D-Trp, D-tryptophan] |  |  | dose response activation of GPR139 (in words) [2]: specifically activate GPR139 in a dose-responsive manner; dose response activation of GPR139 (in words) [4]: specifically activate GPR139 in a dose-responsive manner
N[C@@H](CS)C(=O)O [Cys] | 1928 and 2132 and 2114 | 2168 and 2458 and 2336 | 
N[C@@H](CO)C(=O)O [Ser] | 1975 and 2036 and 2164 | 2605 and 2458 and 2545 | 
NC(=O)C[C@H](N)C(=O)O [Asn] | 2195 and 2142 and 2133 | 2806 and 2483 and 2547 | 
C[C@@H](O)[C@H](N)C(=O)O [Thr] | 2210 and 2213 and 2008 | 2547 and 2507 and 2558 | 
CC[C@H](C)[C@H](N)C(=O)O [Ile] | 2266 and 2222 and 2253 | 2760 and 2542 and 2903 | 
Cn1cc(C[C@H](N)C(=O)O)c2ccccc21 [1-methyl-L-Trp] |  |  | dose response activation of GPR139 (in words) [2]: specifically activate GPR139 in a dose-responsive manner; dose response activation of GPR139 (in words) [4]: specifically activate GPR139 in a dose-responsive manner; potency in calcium mobilization compared with L-Trp and L-Phe (in words) [5]: higher potencies
NCC(O)c1ccc(O)cc1 (stereo not shown) [Octopamine] | 2087 and 2140 and 2142 | 2554 and 2675 and 2831 | 
CC(C)C[C@H](N)C(=O)O [Leu] | 2194 and 2213 and 2167 | 2621 and 2544 and 2437 | 
N[C@@H](CCC(=O)O)C(=O)O [Glu] | 2242 and 2310 and 2311 | 2847 and 2837 and 2841 | 
N[C@@H](CC(=O)O)C(=O)O [Asp] | 2177 and 2137 and 2132 | 2758 and 2922 and 2925 | 
CC(C)[C@H](N)C(=O)O [Val] | 2072 and 2083 and 1977 | 2632 and 2689 and 2533 | 
O=C(O)[C@@H]1CCCN1 [Pro] | 2256 and 2235 and 2329 | 2719 and 2657 and 2786 | 
NCCc1c[nH]c2ccc(O)cc12 [Seretonin] | 2356 and 2154 and 2332 | 2839 and 2852 and 2920 | 
N=C(N)NCCC[C@H](N)C(=O)O [Arg] |  | 2806 and 2783 and 2528 | Activation levels (GTPγS binding signal), Ct-GO2Q [1]: 2171 and 2131 and 2255
NCC(=O)O [Gly] | 1936 and 2133 and 2289 | 2560 and 2505 and 2414 | 
NCCCC[C@H](N)C(=O)O [Lys] | 2400 and 2138 and 2041 | 2433 and 2617 and 2589 | 
NCCc1c[nH]cn1 [HA, histamine] | 2186 and 2204 and 2199 | 2737 and 2863 and 2899 | 
CNCC(O)c1ccc(O)c(O)c1 (stereo not shown) [Adrenaline] | 2240 and 2117 and 2045 | 2721 and 2624 and 2670 | 

Source: US20160022636A1, “PHYSIOLOGICAL LIGANDS FOR GPR139” (JANSSEN PHARMACEUTICA NV, priority 2013, published 2016)
